This assay has as its target T1, human Autotaxin (ATX) (Homo sapiens, UniProt Q13822).
T1 construct: generate a full length human ENPP2 ORF with or without a 3′-6×His tag; 6xHis (C); made in house; host or cells: FreeStyle 293-F cells (transient transfection), purified from culture supernatant
The assay can be described thus: Human ATX enzyme inhibition assay (LPC substrate, choline oxidase/HRP/Amplex Red coupled format). Format: biochemical. The note with it: recombinant hATX 1 nM, 18:1 LPC 30 μM, fluorescence at 90 mins minus 5 mins. Here is the method: Human ATX Enzyme Inhibition Assay
To identify inhibitors of the human Autotaxin (ATX) enzyme an in-vitro biochemical profiling assay has been developed using lysophosphatidylcholine (LPC) as substrate and recombinant enzyme. ATX activity is assayed via a coupled enzyme format where choline produced from LPC hydrolysis is converted to hydrogen peroxide by choline oxidase (CO). Hydrogen peroxide is in turn used as a co-substrate by horseradish peroxidase (HRP) to oxidise Amplex Red® and generate the red-fluorescent product, Resorufin.
50 mM Tris-HCl (pH 8.0); 120 mM NaCl; 20 mM CaCl2; 5 mM KCl; 1 mM MgCl2; 0.01% Triton X-100, sterile-filtered and stored at 4° C.
50 mM Tris-HCl (pH 8.0); 150 mM NaCl
human Autotaxin (hATX): 0.97 mg/ml (9.718 μM) Molecular weight 99817. Working solution of 1.5 μM used in this assay.
100 mM 18:1 LPC dissolved in reagent dilution-buffer.
500 U/ml Choline Oxidase in reagent dilution buffer.
2540 U/ml Horseradish Peroxidase, in reagent dilution buffer (10.95 mg/ml).
20 mM Amplex Red (10-Acetyl-3,7-dihydroxy-phenoxazin) in DMSO.
Black, 384-well plate, black with clear bottom, non-treated surface.
Test compounds are received pre-diluted in DMSO as an 11-point concentration-response (0.5 mM highest concentration; 1 in 3.162 dilution). Test compounds are pre-diluted 1:1 (10 μL compound+10 μL assay buffer) in a 96-well conical bottomed plate prior to use.
ATX is diluted to 2.2 nM in assay buffer. Choline oxidase and horseradish peroxidase are diluted to 7.3 U/ml and 14.7 U/ml, respectively. 18:1 LPC and Amplex Red® are diluted to 110 μM and 183.3 μM, respectively (solution protected from light). 2.2 μL of compound pre-dilution or 50% DMSO is added to the reaction plate followed by 25 μL of ATX or assay buffer (negative control). Assay plate is mixed and incubated at room temperature for 10 mins. 15 μL of choline oxidase/horseradish peroxidase is then added. To initiate the reaction 15 μL of LPC 18:1/Amplex Red is added. Assay plate is mixed and incubated at room temperature in the dark. Fluorescence is measured at 5 mins (for background subtraction) and 90 mins.
Final Assay Concentrations:
Horse Radish Peroxidase: 4 U/ml
Fluorescence at 5-minutes is subtracted from the 90-minute end point data and normalized with respect to the positive control. IC50 values are calculated.
Results in the enzymatic ATX inhibition assay are provided for compounds of formula (I).

pIC50: −log10 of the molar value.

For orientation: pIC50 means the negative decadic logarithm of the IC50, by convention in mol/L. With `CC(=O)N1CCC(N2Cc3nc(N[C@H]4Cc5cc(Cl)cc(C#N)c5C4)ncc3C2=O)CC1` [Example 25, (S)-2-((6-(1-acetylpiperidin-4-yl)-5-oxo-6,7-dihydro-5H-pyrrolo[3,4-d]pyrimidin-2-yl)amino)-6-chloro-2,3-dihydro-1H-indene-4-carbonitrile], the pIC50 was 8.22.

With `N#Cc1cc(Cl)cc2c1C[C@@H](Nc1ncc3c(n1)CN(C(CF)CF)C3=O)C2` [Example 26, (S)-6-chloro-2-((6-(1,3-difluoropropan-2-yl)-5-oxo-6,7-dihydro-5H-pyrrolo[3,4-d]pyrimidin-2-yl)amino)-2,3-dihydro-1H-indene-4-carbonitrile], the pIC50 is 8.40.

As for `N#Cc1cc(Cl)cc2c1C[C@@H](Nc1ncc3c(n1)CCNC3=O)C2` [Example 27, (S)-6-chloro-2-((5-oxo-5,6,7,8-tetrahydropyrido[4,3-d]pyrimidin-2-yl)amino)-2,3-dihydro-1H-indene-4-carbonitrile], the pIC50 was 8.52.

Turning to `CC1(CN2Cc3nc(N[C@H]4Cc5cc(Cl)cc(C#N)c5C4)ncc3C2=O)COC1` [Example 28, (S)-6-chloro-2-((6-((3-methyloxetan-3-yl)methyl)-5-oxo-6,7-dihydro-5H-pyrrolo[3,4-d]pyrimidin-2-yl)amino)-2,3-dihydro-1H-indene-4-carbonitrile], the pIC50 was 8.22.

For `N#Cc1cc(Cl)cc2c1C[C@@H](Nc1ncc3c(n1)CCN(C1CCOCC1)C3=O)C2` [Example 29, (S)-6-chloro-2-((5-oxo-6-(tetrahydro-2H-pyran-4-yl)-5,6,7,8-tetrahydropyrido[4,3-d]pyrimidin-2-yl)amino)-2,3-dihydro-1H-indene-4-carbonitrile], the pIC50 was 8.40.

Turning to `CC(C)N1CCc2nc(N[C@H]3Cc4cc(Cl)cc(C#N)c4C3)ncc2C1=O` [Example 30, (S)-6-chloro-2-((6-isopropyl-5-oxo-5,6,7,8-tetrahydropyrido[4,3-d]pyrimidin-2-yl)amino)-2,3-dihydro-1H-indene-4-carbonitrile], the pIC50 is 8.70.

Turning to `N#Cc1cc(Cl)cc2c1C[C@@H](Nc1ncc3c(n1)CCN(CC1CC1)C3=O)C2` [Example 31, (S)-6-chloro-2-((6-(cyclopropylmethyl)-5-oxo-5,6,7,8-tetrahydropyrido[4,3-d]pyrimidin-2-yl)amino)-2,3-dihydro-1H-indene-4-carbonitrile], the pIC50 was 8.70.

Consider `CCN1Cc2nc(N[C@H]3Cc4cc(Cl)cc(C#N)c4C3)ncc2C1=O` [Example 33, (S)-6-chloro-2-((6-ethyl-5-oxo-6,7-dihydro-5H-pyrrolo[3,4-d]pyrimidin-2-yl)amino)-2,3-dihydro-1H-indene-4-carbonitrile], for which the pIC50 was 8.70.

For `CCN1CCc2nc(N[C@H]3Cc4cc(Cl)cc(C#N)c4C3)ncc2C1=O` [Example 34, (S)-6-chloro-2-((6-ethyl-5-oxo-5,6,7,8-tetrahydropyrido[4,3-d]pyrimidin-2-yl)amino)-2,3-dihydro-1H-indene-4-carbonitrile], the pIC50 was 8.52.

On to `N#Cc1cc(Cl)cc2c1C[C@@H](Nc1ncc3c(n1)CNC3=O)C2` [Example 35, (S)-6-chloro-2-((5-oxo-6,7-dihydro-5H-pyrrolo[3,4-d]pyrimidin-2-yl)amino)-2,3-dihydro-1H-indene-4-carbonitrile], for which the pIC50 is 8.70.

`N#Cc1cc(Cl)cc2c1C[C@@H](Nc1ncc3c(n1)CCN(CC(F)(F)F)C3=O)C2` [Example 36, (S)-6-chloro-2-((5-oxo-6-(2,2,2-trifluoroethyl)-5,6,7,8-tetrahydropyrido[4,3-d]pyrimidin-2-yl)amino)-2,3-dihydro-1H-indene-4-carbonitrile]: the pIC50 is 8.52.

For the origin of these results see patent publication US12649745B2, “Amino-pyrimidine cyclo-amides” (Hoffmann-La Roche Inc., priority 2020, dated 2026).
